# Reference: the supplement of paper PMC10307832
# Tests used:
# Experiment in all cases: relative viability (nuclei count vs DMSO), 5 days (fraction); higher = more cells survive
# IA-LM = system: IA-LM
# Summary of the method: (§1)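 Nuclei were stained with Hoechst during a one-step fixation (final 0.05% Triton X-100, 1% formaldehyde, 1 ug/ml Hoechst) carried out 5 days after dosing, then counted on 4× images. The cells, lung cancer lines in 1536-well plates, had been dosed by pin tool the day after seeding with one drug alone or a fixed anchor-drug dose plus five library-drug doses (not always all listed) in √10 steps. Relative viability is the nuclei count in treated wells divided by that in vehicle wells, and each value is the median of duplicate plates.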
# NCI-H1623 = system: NCI-H1623
# Summary of the method: as §1
# A549 = system: A549
# Summary of the method: as §1
# RERF-LC-KJ = system: RERF-LC-KJ
# Summary of the method: as §1
# NCI-H2126 = system: NCI-H2126
# Summary of the method: as §1
# EBC-1 = system: EBC-1
# Summary of the method: as §1
# Calu-6 = system: Calu-6
# Summary of the method: as §1
# NCI-H1993 = system: NCI-H1993
# Summary of the method: as §1
# NCI-H1299 = system: NCI-H1299
# Summary of the method: as §1
# ABC-1 = system: ABC-1
# Summary of the method: as §1
# NCI-H2085 = system: NCI-H2085
# Summary of the method: as §1
# NCI-H1703 = system: NCI-H1703
# Summary of the method: as §1
# EKVX = system: EKVX
# Summary of the method: as §1
# NCI-H1648 = system: NCI-H1648
# Summary of the method: as §1
# HCC-44 = system: HCC-44
# Summary of the method: as §1
smiles,measurement,setting,value
Nc1ccn([C@@H]2O[C@H](CO)[C@@H](O)[C@@H]2O)c(=O)n1 [Cytarabine] + COc1cc2c(Oc3ccc(NC(=O)C4(C(=O)Nc5ccc(F)cc5)CC4)cc3F)ccnc2cc1OCCCN1CCOCC1 [Foretinib] (partner 0.25 µM),relative viability,IA-LM; first compound 0.005 µM,0.802
same,relative viability,IA-LM; first compound 0.01581 µM,1.05
same,relative viability,IA-LM; first compound 0.05 µM,0.916
same,relative viability,IA-LM; first compound 0.1581 µM,0.592
same,relative viability,IA-LM; first compound 0.5 µM,0.246
same,relative viability,NCI-H1623; first compound 0.005 µM,0.695
same,relative viability,NCI-H1623; first compound 0.01581 µM,0.545
same,relative viability,NCI-H1623; first compound 0.05 µM,0.375
same,relative viability,NCI-H1623; first compound 0.1581 µM,0.463
same,relative viability,NCI-H1623; first compound 0.5 µM,0.577
same,relative viability,A549; first compound 0.005 µM,0.622
same,relative viability,A549; first compound 0.01581 µM,0.629
same,relative viability,A549; first compound 0.05 µM,0.336
same,relative viability,A549; first compound 0.1581 µM,0.071
same,relative viability,A549; first compound 0.5 µM,0.0358
same,relative viability,RERF-LC-KJ; first compound 0.005 µM,0.855
same,relative viability,RERF-LC-KJ; first compound 0.01581 µM,0.787
same,relative viability,RERF-LC-KJ; first compound 0.05 µM,0.735
same,relative viability,RERF-LC-KJ; first compound 0.1581 µM,0.545
same,relative viability,RERF-LC-KJ; first compound 0.5 µM,0.469
same,relative viability,NCI-H2126; first compound 0.005 µM,1.01
same,relative viability,NCI-H2126; first compound 0.01581 µM,1.03
same,relative viability,NCI-H2126; first compound 0.05 µM,1.1
same,relative viability,NCI-H2126; first compound 0.1581 µM,0.922
same,relative viability,NCI-H2126; first compound 0.5 µM,0.694
same,relative viability,EBC-1; first compound 0.005 µM,0.0948
same,relative viability,EBC-1; first compound 0.01581 µM,0.0902
same,relative viability,EBC-1; first compound 0.05 µM,0.0964
same,relative viability,EBC-1; first compound 0.1581 µM,0.0746
same,relative viability,EBC-1; first compound 0.5 µM,0.076
same,relative viability,Calu-6; first compound 0.005 µM,0.796
same,relative viability,Calu-6; first compound 0.01581 µM,0.702
same,relative viability,Calu-6; first compound 0.05 µM,0.707
same,relative viability,Calu-6; first compound 0.1581 µM,0.405
same,relative viability,Calu-6; first compound 0.5 µM,0.233
same,relative viability,NCI-H1993; first compound 0.005 µM,0.843
same,relative viability,NCI-H1993; first compound 0.01581 µM,0.889
same,relative viability,NCI-H1993; first compound 0.05 µM,0.726
same,relative viability,NCI-H1993; first compound 0.1581 µM,0.485
same,relative viability,NCI-H1993; first compound 0.5 µM,0.468
same,relative viability,NCI-H1299; first compound 0.005 µM,1.15
same,relative viability,NCI-H1299; first compound 0.01581 µM,1.13
same,relative viability,NCI-H1299; first compound 0.05 µM,1.05
same,relative viability,NCI-H1299; first compound 0.1581 µM,1.12
same,relative viability,NCI-H1299; first compound 0.5 µM,1.16
same,relative viability,ABC-1; first compound 0.005 µM,0.997
same,relative viability,ABC-1; first compound 0.01581 µM,1.14
same,relative viability,ABC-1; first compound 0.05 µM,1.06
same,relative viability,ABC-1; first compound 0.1581 µM,1.01
same,relative viability,ABC-1; first compound 0.5 µM,0.63
same,relative viability,NCI-H2085; first compound 0.005 µM,0.994
same,relative viability,NCI-H2085; first compound 0.01581 µM,0.847
same,relative viability,NCI-H2085; first compound 0.05 µM,0.75
same,relative viability,NCI-H2085; first compound 0.1581 µM,0.555
same,relative viability,NCI-H2085; first compound 0.5 µM,0.475
same,relative viability,NCI-H1703; first compound 0.005 µM,0.251
same,relative viability,NCI-H1703; first compound 0.01581 µM,0.273
same,relative viability,NCI-H1703; first compound 0.05 µM,0.253
same,relative viability,NCI-H1703; first compound 0.1581 µM,0.195
same,relative viability,NCI-H1703; first compound 0.5 µM,0.158
same,relative viability,EKVX; first compound 0.005 µM,0.866
same,relative viability,EKVX; first compound 0.01581 µM,0.594
same,relative viability,EKVX; first compound 0.05 µM,0.622
same,relative viability,EKVX; first compound 0.1581 µM,0.413
same,relative viability,EKVX; first compound 0.5 µM,0.793
Nc1ccn([C@@H]2O[C@H](CO)[C@@H](O)[C@@H]2O)c(=O)n1 [Cytarabine] + COc1cccc2cc(-c3nc([C@H]4CC[C@H](C(=O)O)CC4)n4ncnc(N)c34)[nH]c12 [OSI-027] (partner 0.5 µM),relative viability,NCI-H1623; first compound 0.005 µM,0.372
same,relative viability,NCI-H1623; first compound 0.01581 µM,0.376
same,relative viability,NCI-H1623; first compound 0.05 µM,0.277
same,relative viability,NCI-H1623; first compound 0.1581 µM,0.258
same,relative viability,NCI-H1623; first compound 0.5 µM,0.243
same,relative viability,RERF-LC-KJ; first compound 0.005 µM,0.461
same,relative viability,RERF-LC-KJ; first compound 0.01581 µM,0.477
same,relative viability,RERF-LC-KJ; first compound 0.05 µM,0.5
same,relative viability,RERF-LC-KJ; first compound 0.1581 µM,0.391
same,relative viability,RERF-LC-KJ; first compound 0.5 µM,0.297
same,relative viability,NCI-H2126; first compound 0.005 µM,0.62
same,relative viability,NCI-H2126; first compound 0.01581 µM,0.626
same,relative viability,NCI-H2126; first compound 0.05 µM,0.544
same,relative viability,NCI-H2126; first compound 0.1581 µM,0.533
same,relative viability,NCI-H2126; first compound 0.5 µM,0.45
same,relative viability,NCI-H1993; first compound 0.005 µM,0.599
same,relative viability,NCI-H1993; first compound 0.01581 µM,0.56
same,relative viability,NCI-H1993; first compound 0.05 µM,0.529
same,relative viability,NCI-H1993; first compound 0.1581 µM,0.484
same,relative viability,NCI-H1993; first compound 0.5 µM,0.498
same,relative viability,NCI-H1648; first compound 0.005 µM,0.238
same,relative viability,NCI-H1648; first compound 0.01581 µM,0.266
same,relative viability,NCI-H1648; first compound 0.05 µM,0.246
same,relative viability,NCI-H1648; first compound 0.1581 µM,0.214
same,relative viability,NCI-H1648; first compound 0.5 µM,0.263
same,relative viability,ABC-1; first compound 0.005 µM,0.41
same,relative viability,ABC-1; first compound 0.01581 µM,0.458
same,relative viability,ABC-1; first compound 0.05 µM,0.463
same,relative viability,ABC-1; first compound 0.1581 µM,0.379
same,relative viability,ABC-1; first compound 0.5 µM,0.259
same,relative viability,NCI-H2085; first compound 0.005 µM,0.535
same,relative viability,NCI-H2085; first compound 0.01581 µM,0.735
same,relative viability,NCI-H2085; first compound 0.05 µM,0.623
same,relative viability,NCI-H2085; first compound 0.1581 µM,0.442
same,relative viability,NCI-H2085; first compound 0.5 µM,0.459
same,relative viability,EKVX; first compound 0.005 µM,0.573
same,relative viability,EKVX; first compound 0.01581 µM,0.499
same,relative viability,EKVX; first compound 0.05 µM,0.635
same,relative viability,EKVX; first compound 0.1581 µM,0.37
same,relative viability,EKVX; first compound 0.5 µM,0.22
same,relative viability,HCC-44; first compound 0.005 µM,0.376
same,relative viability,HCC-44; first compound 0.01581 µM,0.461
same,relative viability,HCC-44; first compound 0.05 µM,0.413
same,relative viability,HCC-44; first compound 0.1581 µM,0.189
same,relative viability,HCC-44; first compound 0.5 µM,0.226
